Measured values as given in patent EP0091528A1, “-N-(1-propyl-2-pyrrolidylmethyl)-2-methoxy-5-sulfamoyl benzamide and its use against some sorts of depression” (priority 1982, dated 1983).
Several values for one entry are separate records, joined by “and”; a condition that tells them apart may be missing. Identical values can stand only once. Like-named read-outs stand apart in the source and are kept apart here.

Assays:
[1] = tested on: stéréotypies induites chez le Rat par l'apomorphine (agoniste direct); assay: Potentiation of apomorphine-induced stereotypies in the rat; type: in vivo; details: for DE50 vis-à-vis de l'apomorphine: Bliss method, two trials not named
Protocol: (§1) A cet effet, le composé de l'invention a été étudié vis-à-vis de la potentialisation des stéréotypies induites chez le Rat par deux agonistes dopaminergiques, l'apomorphine (agoniste direct) et la d-amphétamine (agoniste indirect).
(§2) Dans les deux essais, la dose d'agoniste est choisie telle qu'elle n'entraîne pas, chez tous les animaux d'expérience, l'apparition de mouvements stéréotypés de la sphère buccale de type léchage ou mâchonnement (Apomorphine : 0,250 mg.kg^-1 S.C. - d-amphétamine : 3 mg.kg^-1 I.P.).
(§3) L'observation de ce comportement stéréotypé chez un plus grand nombre d'animaux consécutif à l'administration de doses croissantes du composé de l'invention, injectées par voie I.P. 30 minutes avant l'agoniste, traduit un renforcement dopaminergique.
(§4) Les DE50 déterminées par la méthode de Bliss assortie des limites de confiance à 95% sont de 10,8 et 8,9 mg.kg.^-1 I.P. vis-à-vis de l'apomorphine et 1,4 et 2,6 mg.kg^-1 vis-à-vis de la d-amphétamine.

[2] = Double-blind comparative clinical trial versus imipramine in depression; type: in vivo, humaine; details: for tolérance tant clinique que biologique: 450 mg par jour (compound), 150 mg par jour (IMIPRAMINE)
Protocol: En conséquence, un essai clinique comparatif en double aveugle a été mené mettant en oeuvre le composé selon l'invention et l'IMIPRAMINE, produit de référence indiscutable dans le traitement de certains états dépressifs.
Les posologies retenues ont été fixées : • . pour l'IMIPRAMINE en fonction des données acquises et de la posologie préconisée par le fabricant, c'est-à-dire : 150 mg par jour, dose atteinte progressivement en 5 jours; • . pour le composé selon l'invention, à partir des données recueillies par les études antérieures, c'est-à-dire : 450 mg par jour. Bien que cette posologie puisse, du fait de l'excellente tolérance du produit, être administrée d'emblée, pour se plier aux règles du double-aveugle et respecter le mode d'administration optimum pour l'IMIPRAMINE, cette dose n'a également été atteinte que le Sème jour après deux paliers successifs de : 150 et 300 mg par jour. Toutefois d'autres études permettent de penser que des doses plus faibles du composé selon l'invention aboutissent à des résultats similaires.
Ces doses ont été administrées pendant 28 jours consécutifs en mono- thérapie, dans toute la mesure du possible.
Pouvaient entrer dans l'étude, les sujets présentant une dépression authentique c'est-à-dire atteignant le score de 36 à la version simplifiée à 17 items de l'échelle de Hamilton.
La comparaison entre les deux produits a porté sur l'efficacité thérapeutique et sur la tolérance, 34 cas ayant été analysés. Pour établir cette comparaison, le protocole prévoyait trois bilans : • . avant le début du traitement (JO) • . au 10ème jour (J10) • . au 28ème jour (J28)
Chacun de ces bilans comportait obligatoirement : • . une B.P.R.S. • une échelle de Hamilton (26 items) • une appréciation par l'expert de 1"'intensité du syndrome dépressif" • une recherche des troubles somatiques associés à l'état dépressif.
De plus, à JO et à J28, il a été pratiqué une auto-appréciation de son état par le malade (S.D.S.) et un bilan biologique standard.
Enfin, en fin de traitement, il a été convenu d'exprimer une impression subjective globale sur l'intérêt du traitement pour chaque observation.

[3] = tested on: récepteurs dopamine du centre du vomissement; assay: Antiemetic power in the dog (apomorphine-induced emesis); type: in vivo; details: vomiting induced by apomorphine
Description: D'une façon générale, ces dérivés benzamides interfèrent dans les mécanismes dopaminergiques du système nerveux. Leurs effets bloquants sur les récepteurs dopamine centraux leur confèrent des propriétés neuroleptiques. Leur effet bloquant sur les récepteurs dopamine du centre du vomissement se traduit par un puissant antagonisme à l'égard de l'effet émétisant de certains agonistes dopaminergiques, tels que l'apomorphine et les alcaloïdes de l'ergot de seigle.
Au plan pharmacologique, les interférences des deux composés dans le système dopamine ont été comparées par différents tests adaptés à la mise en évidence des effets antagonistes et agonistes. Il en résulte que : • 1) - le composé selon l'invention et le Sulpiride sont de très puissants antagonistes dans le test de l'emesis chez le chien où les vomissements sont provoqués par l'agoniste apomorphine.
Les valeurs des DE 50 montrent que les activités des deux composés sont équivalentes.

[4] = Acute toxicity, LD50 in mice by different routes; type: in vivo; details: souris; for LD50: mouse, in vivo, read-out: DL 50 (the source's name)
Description: Au plan toxicologique, la détermination des DL 50 des deux produits administrés chez la souris par différentes voies ne révèle aucune différence majeure, le Sulpiride étant toutefois un peu moins toxique par voie buccale.

[5] = tested on: stéréotypies induites chez le Rat par la d-amphétamine (agoniste indirect); assay: Potentiation of d-amphetamine-induced stereotypies in the rat; type: in vivo; details: for DE50 vis-à-vis de la d-amphétamine: Bliss method, two trials not named
Protocol: as §1, §2, §3, §4

[6] = tested on: récepteurs dopamine centraux; assay: Inhibition of apomorphine-induced rearing (climbing) movement in mice; type: in vivo; details: souris, I.P., apomorphine 1 mg/kg S.C.
Protocol: 2) - Les deux composés ne se distinguent pas non plus quand leur propriété antagoniste dopaminergique centrale est jugée par exemple d'après l'inhibition qu'ils provoquent du mouvement de redressement induit chez la souris par l'apomorphine (1 mg/kg S.C.).
Les doses inhibitrices 50 de ce mouvement sont voisines pour les deux composés, respectivement : […]

[7] = Essai I, 4 mg.kg^-1 I.P. 30 min before Apomorphine 0,250 mg.kg^-1 S.C.
[8] = Essai I, 8 mg.kg^-1 I.P. 30 min before Apomorphine 0,250 mg.kg^-1 S.C.
[9] = Essai I, 16 mg.kg^-1 I.P. 30 min before Apomorphine 0,250 mg.kg^-1 S.C.
[10] = Essai II, 4 mg.kg^-1 I.P. 30 min before Apomorphine 0,250 mg.kg^-1 S.C.
[11] = Essai II, 8 mg.kg^-1 I.P. 30 min before Apomorphine 0,250 mg.kg^-1 S.C.
[12] = Essai II, 16 mg.kg^-1 I.P. 30 min before Apomorphine 0,250 mg.kg^-1 S.C.
[13] = Essai I, 2 mg.kg^-1 I.P. 30 min before d-Amphétamine 3 mg.kg^-1 I.P.
[14] = Essai I, 4 mg.kg^-1 I.P. 30 min before d-Amphétamine 3 mg.kg^-1 I.P.
[15] = Essai I, 8 mg.kg^-1 I.P. 30 min before d-Amphétamine 3 mg.kg^-1 I.P.
[16] = Essai II, 1 mg.kg^-1 I.P. 30 min before d-Amphétamine 3 mg.kg^-1 I.P.
[17] = Essai II, 4 mg.kg^-1 I.P. 30 min before d-Amphétamine 3 mg.kg^-1 I.P.
[18] = Essai II, 16 mg.kg^-1 I.P. 30 min before d-Amphétamine 3 mg.kg^-1 I.P.

| Molecule | % d'activité [1, 7] [%] | Nombre d'animaux positifs/16 [1, 7] | % d'activité [1, 8] [%] | Nombre d'animaux positifs/16 [1, 8] | % d'activité [1, 9] [%] | Nombre d'animaux positifs/16 [1, 9] | tolérance tant clinique que biologique ([2]; 28 days) | Pouvoir antiémétique chez le chien DE 50 S.C. [3] | % d'activité [5, 13] [%] | Nombre d'animaux positifs/16 [5, 13] | % d'activité [5, 14] [%] | Nombre d'animaux positifs/16 [5, 14] | % d'activité [5, 15] [%] | Nombre d'animaux positifs/16 [5, 15] | doses inhibitrices 50 du mouvement de redressement [6] [mg/kg I.P.] | other results |
| --- | --- | --- | --- | --- | --- | --- | --- | --- | --- | --- | --- | --- | --- | --- | --- | --- |
| N-(1-propyl-2-pyrrolidylméthyl)-2-méthoxy-5-sulfamoyl benzamide [Composé selon l'invention] | 23 | 6 | 46 | 9 | 69 | 12 | moindre fréquence de l'apparition ou de l'aggravation d'une symptomatologie somatique | 4,1 γ/kg | 38 | 6 | 69 | 11 | 88 | 14 | 32 | % d'activité [1, 10]: 7%; Nombre d'animaux positifs/16 [1, 10]: 2; % d'activité [1, 11]: 33%; Nombre d'animaux positifs/16 [1, 11]: 6; % d'activité [1, 12]: 67%; Nombre d'animaux positifs/16 [1, 12]: 11; DE50 vis-à-vis de l'apomorphine ([1]; I.P., listed as composé de l'invention): 10,8 mg.kg^-1 and 8,9 mg.kg^-1; efficacité ([2]; compared with IMIPRAMINE 150 mg par jour, compound 450 mg par jour, 28 days): au moins égale à celle de l'IMIPRAMINE; rapidité d'action sur l'état dépressif ([2]; compared with IMIPRAMINE, J10 versus J28): agit plus rapidement sur l'état dépressif que l'IMIPRAMINE; DL 50 ([4]; I.P.): 181 to 203 mg/kg; DL 50 ([4]; I.V.): 51,7-52,6 mg/kg; DL 50 ([4]; P.O.): 1411 to 1423 mg/kg; DL 50 ([4]; S.C.): 337 to 363 mg/kg; DE50 vis-à-vis de la d-amphétamine ([5]; listed as composé de l'invention): 1,4 mg.kg^-1 and 2,6 mg.kg^-1; % d'activité [5, 16]: 38%; Nombre d'animaux positifs/16 [5, 16]: 6; % d'activité [5, 17]: 81%; Nombre d'animaux positifs/16 [5, 17]: 13; % d'activité [5, 18]: 94%; Nombre d'animaux positifs/16 [5, 18]: 15 |
| CCN1CCCC1CNC(=O)c1cc(S(N)(=O)=O)ccc1OC (stereo not shown) [Sulpiride, N-(1-éthyl-2-pyrrolidinyl-méthyl)-2-méthoxy-5-sulfamoyl benzamide, reference compound] | 15 | 5 | 31 | 7 | 15 | 5 |  | 3,5-4,8 γ/kg | 6 | 1 | 13 | 2 | 6 | 1 | 22 | DE50 mg.kg^-1 I.P. base ([1]; Essai I, I.P., base, Apomorphine 0,250 mg.kg^-1 S.C., 95% confidence limits in brackets): inactif; DE50 vis-à-vis de l'apomorphine ([1]; I.P.): inactif; LD50 ([4]; ip, I.P.): 210 mg/kg; LD50 ([4]; iv, I.V.): 43.5 to 44 mg/kg; LD50 ([4]; po, P.O.): 1800 to 2890 mg/kg; LD50 ([4]; sc, S.C.): 372 mg/kg; DE50 vis-à-vis de la d-amphétamine [5]: inactif; DE50 mg.kg^-1 I.P. base ([5]; Essai I, I.P., base, d-Amphétamine 3 mg.kg^-1 I.P., 95% confidence limits in brackets): inactif |
| CN(C)CCCN1c2ccccc2CCc2ccccc21 [IMIPRAMINE, reference compound] |  |  |  |  |  |  | troubles de la série anticholinergique nettement plus importants et plus sévères |  |  |  |  |  |  |  |  |  |
